# Assay results taken from patent US20150197492A1, “NOVEL INDENO[1,2-c]QUINOLIN-11-ONE DERIVATIVES, PREPARATION METHOD AND APPLICATION THEREOF” (National Defense Medical Center, priority 2014, published 2015).
# Legend:
# Type in all cases: cell-based
# [1] = system: NCI-H522; test: cells
# [2] = system: HT29; test: cells
# [3] = system: OVCAR-8; test: cells
# [4] = system: ACHN; test: cells
# [5] = system: SK-MEL-28; test: cells
# [6] = system: human PC-3 cells; test: Sulforhodamine B (SRB) assay, cytotoxicity against PC-3 cells; conditions: SRB assay, PC-3 cells
# Summary of the method: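 PC-3 cells in 5% FBS were fixed with 10% TCA after 24 h as T0, then treated with compound for 48 h, fixed, stained with 0.4% SRB in 1% acetic acid and solubilized in 10 mmol/L Trizma base. Absorbance was read at 515 nm. GI% = 100−[(Tx−T0)/(C−T0)]×100, and IC50 is the concentration halving total protein.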
# [7] = system: NCI-H322M; test: cells
# [8] = system: BT-549; test: cells
# [9] = system: CAKI-1; test: cells
# [10] = system: KM12; test: cells
# [11] = system: OVCAR-5; test: cells
# [12] = system: 786-0; test: cells
# [13] = system: 55 to 60 cancer cell lines; conditions: 10 μM
# [14] = system: MDA-MB-435; test: cells
# [15] = system: SR; test: cells
# [16] = system: MALME-3M; test: cells
# [17] = system: SN12C; test: cells
# [18] = system: DU-145; test: cells
# [19] = system: SF-295; test: cells
# [20] = system: MDA-MB-468; test: cells
# [21] = system: UACC-62; test: cells
# [22] = system: UACC-257; test: cells
# [23] = system: PC-3; test: cells
# [24] = system: T-47D; test: cells
# [25] = system: OVCAR-4; test: cells
# [26] = system: SNB-19; test: cells
# [27] = system: MOLT-4; test: cells
# [28] = system: HS 578T; test: cells
# [29] = system: OVCAR-3; test: cells
# [30] = system: CCRF-CEM; test: cells
# [31] = Homo sapiens, Melanoma MALME-3M
# [32] = Homo sapiens, CNS Cancer SF-295
# [33] = Homo sapiens, CNS Cancer SNB-19
structure (smiles),measurement,setting,value
"O=C1c2cc(Cl)ccc2-c2c(N3CCNCC3)nc3ccccc3c21 [SJ-10, 9-Chloro-6-(piperazin-1-yl)-11H-indeno[1,2-c]quinolin-11-one]",GI50,"[1]; Homo sapiens, Non-Small Cell Lung Cancer NCI-H522",3.98 µM
same,CC50,"[1]; Homo sapiens, Non-Small Cell Lung Cancer NCI-H522, read-out: LC50 (the source's name)",> 100 µM
same,growth percentage,"[1]; NCI-H522 (Non-Small Cell Lung Cancer), 10 μM, 48 hours",18.08%
same,TGI,[1]; Non-Small Cell Lung Cancer NCI-H522,>100 µM
same,TGI,[2]; Colon Cancer HT29,>100 µM
same,growth percentage,"[2]; HT29 (Colon Cancer), 10 μM, 48 hours",-80.89%
same,GI50,"[2]; Homo sapiens, HT-29, Colon Cancer HT29",7.84 µM
same,CC50,"[2]; Homo sapiens, HT-29, Colon Cancer HT29, read-out: LC50 (the source's name)",> 100 µM
same,GI50,"[3]; Homo sapiens, Ovarian Cancer OVCAR-8",8.66 µM
same,CC50,"[3]; Homo sapiens, Ovarian Cancer OVCAR-8, read-out: LC50 (the source's name)",> 100 µM
same,growth percentage,"[3]; OVCAR-8 (Ovarian Cancer), 10 μM, 48 hours",-46.09%
same,TGI,[3]; Ovarian Cancer OVCAR-8,>100 µM
same,growth percentage,"[4]; ACHN (Renal Cancer), 10 μM, 48 hours",-83.29%
same,GI50,"[4]; Homo sapiens, Renal Cancer ACHN",3.14 µM
same,CC50,"[4]; Homo sapiens, Renal Cancer ACHN, read-out: LC50 (the source's name)",> 100 µM
same,TGI,[4]; Renal Cancer ACHN,>100 µM
same,GI50,"[5]; Homo sapiens, Melanoma SK-MEL-28",> 100 µM
same,CC50,"[5]; Homo sapiens, Melanoma SK-MEL-28, read-out: LC50 (the source's name)",> 100 µM
same,TGI,[5]; Melanoma SK-MEL-28,>100 µM
same,growth percentage,"[5]; SK-MEL-28 (Melanoma), 10 μM, 48 hours",-91.38%
same,Toxicity (%),[6],47.2%
same,GI % (10 μM),[6]; 10 μM,100%
same,GI50,"[7]; Homo sapiens, Non-Small Cell Lung Cancer NCI-H322M",5.62 µM
same,CC50,"[7]; Homo sapiens, Non-Small Cell Lung Cancer NCI-H322M, read-out: LC50 (the source's name)",> 100 µM
same,growth percentage,"[7]; NCI-H322M (Non-Small Cell Lung Cancer), 10 μM, 48 hours",35.89%
same,TGI,[7]; Non-Small Cell Lung Cancer NCI-H322M,>100 µM
same,growth percentage,"[8]; BT-549 (Breast Cancer), 10 μM, 48 hours",58.35%
same,TGI,[8]; Breast Cancer BT-549,>100 µM
same,GI50,"[8]; Homo sapiens, Breast Cancer BT-549",10.6 µM
same,CC50,"[8]; Homo sapiens, Breast Cancer BT-549, read-out: LC50 (the source's name)",> 100 µM
same,growth percentage,"[9]; CAKI-1 (Renal Cancer), 10 μM, 48 hours",17.84%
same,GI50,"[9]; Homo sapiens, Renal Cancer CAKI-1",2.52 µM
same,CC50,"[9]; Homo sapiens, Renal Cancer CAKI-1, read-out: LC50 (the source's name)",> 100 µM
same,TGI,[9]; Renal Cancer CAKI-1,>100 µM
same,TGI,[10]; Colon Cancer KM12,>100 µM
same,GI50,"[10]; Homo sapiens, Colon Cancer KM12",2.5 µM
same,CC50,"[10]; Homo sapiens, Colon Cancer KM12, read-out: LC50 (the source's name)",> 100 µM
same,growth percentage,"[10]; KM12 (Colon Cancer), 10 μM, 48 hours",-47.09%
same,GI50,"[11]; Homo sapiens, Ovarian Cancer OVCAR-5",34.5 µM
same,CC50,"[11]; Homo sapiens, Ovarian Cancer OVCAR-5, read-out: LC50 (the source's name)",> 100 µM
same,growth percentage,"[11]; OVCAR-5 (Ovarian Cancer), 10 μM, 48 hours",39.14%
same,TGI,[11]; Ovarian Cancer OVCAR-5,>100 µM
same,growth percentage,"[12]; 786-0 (Renal Cancer), 10 μM, 48 hours",25.31%
same,GI50,"[12]; Homo sapiens, 786-0, Renal Cancer 786-O",23.5 µM
same,CC50,"[12]; Homo sapiens, 786-0, Renal Cancer 786-O, read-out: LC50 (the source's name)",> 100 µM
same,TGI,[12]; Renal Cancer 786-O,>100 µM
same,"inhibition effect in different cancer cell lines (summary of the NCI data, in words)",[13]; 48 hours,preferable inhibition effects in leukemia and colon cancer cells
same,Mean (mean growth percentage of the tested cancer cell lines),"[13]; 48 hours, all tested cell lines",−14.37%
same,cytotoxicity in the first stage (in words),[13]; basis for selection for the five-dose test,potential cytotoxicity
same,GI50,"[14]; Homo sapiens, Melanoma MDA-MB-435",7.01 µM
same,CC50,"[14]; Homo sapiens, Melanoma MDA-MB-435, read-out: LC50 (the source's name)",> 100 µM
same,growth percentage,"[14]; MDA-MB-435 (Melanoma), 10 μM, 48 hours",-6.57%
same,TGI,[14]; Melanoma MDA-MB-435,>100 µM
same,GI50,"[15]; Homo sapiens, Leukemia SR",3.09 µM
same,LC50 (50% lethal concentration),"[15]; Homo sapiens, Leukemia SR",> 100 µM
same,TGI,[15]; Leukemia SR,>100 µM
same,growth percentage,"[15]; SR (Leukemia), 10 μM, 48 hours",-55.19%
same,GI50,[16]; [31],8.87 µM
same,LC50 (concentration killing 50% of cells),[16]; [31],> 100 µM
same,growth percentage,"[16]; MALME-3M (Melanoma), 10 μM, 48 hours",-32.28%
same,TGI,[16]; Melanoma MALME-3M,>100 µM
same,GI50,"[17]; Homo sapiens, Renal Cancer SN12C",5.42 µM
same,CC50,"[17]; Homo sapiens, Renal Cancer SN12C, read-out: LC50 (the source's name)",> 100 µM
same,TGI,[17]; Renal Cancer SN12C,>100 µM
same,growth percentage,"[17]; SN12C (Renal Cancer), 10 μM, 48 hours",15.89%
same,growth percentage,"[18]; DU-145 (Prostate Cancer), 10 μM, 48 hours",-41.83%
same,GI50,"[18]; Homo sapiens, Prostate Cancer DU-145",4.79 µM
same,CC50,"[18]; Homo sapiens, Prostate Cancer DU-145, read-out: LC50 (the source's name)",> 100 µM
same,TGI,[18]; Prostate Cancer DU-145,>100 µM
same,TGI,[19]; CNS Cancer SF-295,>100 µM
same,GI50,[19]; [32],7.79 µM
same,LC50 (concentration killing 50% of cells),[19]; [32],> 100 µM
same,growth percentage,"[19]; SF-295 (CNS Cancer), 10 μM, 48 hours",23.75%
same,TGI,[20]; Breast Cancer MDA-MB-468,>100 µM
same,GI50,"[20]; Homo sapiens, Breast Cancer MDA-MB-468",4.42 µM
same,CC50,"[20]; Homo sapiens, Breast Cancer MDA-MB-468, read-out: LC50 (the source's name)",> 100 µM
same,growth percentage,"[20]; MDA-MB-468 (Breast Cancer), 10 μM, 48 hours",-35.66%
same,GI50,"[21]; Homo sapiens, Melanoma UACC-62",4.38 µM
same,CC50,"[21]; Homo sapiens, Melanoma UACC-62, read-out: LC50 (the source's name)",> 100 µM
same,TGI,[21]; Melanoma UACC-62,>100 µM
same,growth percentage,"[21]; UACC-62 (Melanoma), 10 μM, 48 hours",-81.71%
same,GI50,"[22]; Homo sapiens, Melanoma UACC-257",35.1 µM
same,CC50,"[22]; Homo sapiens, Melanoma UACC-257, read-out: LC50 (the source's name)",> 100 µM
same,TGI,[22]; Melanoma UACC-257,>100 µM
same,growth percentage,"[22]; UACC-257 (Melanoma), 10 μM, 48 hours",-39.24%
same,GI50,"[23]; Homo sapiens, Prostate Cancer PC-3",5.93 µM
same,CC50,"[23]; Homo sapiens, Prostate Cancer PC-3, read-out: LC50 (the source's name)",> 100 µM
same,growth percentage,"[23]; PC-3 (Prostate Cancer), 10 μM, 48 hours",-58.51%
same,TGI,[23]; Prostate Cancer PC-3,>100 µM
same,TGI,[24]; Breast Cancer T-47D,>100 µM
same,GI50,"[24]; Homo sapiens, T47D, Breast Cancer T-47D",8.44 µM
same,CC50,"[24]; Homo sapiens, T47D, Breast Cancer T-47D, read-out: LC50 (the source's name)",> 100 µM
same,growth percentage,"[24]; T-47D (Breast Cancer), 10 μM, 48 hours",-31.54%
same,GI50,"[25]; Homo sapiens, Ovarian Cancer OVCAR-4",6.39 µM
same,CC50,"[25]; Homo sapiens, Ovarian Cancer OVCAR-4, read-out: LC50 (the source's name)",> 100 µM
same,growth percentage,"[25]; OVCAR-4 (Ovarian Cancer), 10 μM, 48 hours",35.59%
same,TGI,[25]; Ovarian Cancer OVCAR-4,>100 µM
same,TGI,[26]; CNS Cancer SNB-19,>100 µM
same,GI50,[26]; [33],8.27 µM
same,LC50,[26]; [33],> 100 µM
same,growth percentage,"[26]; SNB-19 (CNS Cancer), 10 μM, 48 hours",67.25%
same,GI50,"[27]; Homo sapiens, Leukemia MOLT-4",4.41 µM
same,LC50 (concentration killing 50% of cells),"[27]; Homo sapiens, Leukemia MOLT-4",> 100 µM
same,TGI,[27]; Leukemia MOLT-4,>100 µM
same,growth percentage,"[27]; MOLT-4 (Leukemia), 10 μM, 48 hours",-43.22%
same,TGI,[28]; Breast Cancer HS 578T,>100 µM
same,growth percentage,"[28]; HS 578T (Breast Cancer), 10 μM, 48 hours",60.88%
same,GI50,"[28]; Homo sapiens, Breast Cancer HS 578T",4.77 µM
same,CC50,"[28]; Homo sapiens, Breast Cancer HS 578T, read-out: LC50 (the source's name)",> 100 µM
same,GI50,"[29]; Homo sapiens, Ovarian Cancer OVCAR-3",12.8 µM
same,CC50,"[29]; Homo sapiens, Ovarian Cancer OVCAR-3, read-out: LC50 (the source's name)",> 100 µM
same,growth percentage,"[29]; OVCAR-3 (Ovarian Cancer), 10 μM, 48 hours",22.86%
same,TGI,[29]; Ovarian Cancer OVCAR-3,>100 µM
same,growth percentage,"[30]; CCRF-CEM (Leukemia), 10 μM, 48 hours",-35.45%
same,GI50,"[30]; Homo sapiens, Leukemia CCRF-CEM",6.32 µM
same,CC50,"[30]; Homo sapiens, Leukemia CCRF-CEM, read-out: LC50 (the source's name)",> 100 µM
same,TGI,[30]; Leukemia CCRF-CEM,>100 µM
